Experimental data taken from patent US9326972B2, “Use of phenylmethimazoles, methimazole derivatives, and tautomeric cyclic thiones for the treatment of autoimmune/inflammatory diseases associated with toll-like receptor overexpression” (Ohio University, priority 2004, dated 2016).

Columns and labels:
TLR3 = test: Inhibition of IFN-β- or dsRNA transfection-increased TLR3, PKR, MHC class I RNA in FRTL-5 thyrocytes (Northern/PCR); type: cell-based, rat; settings: for % TLR3 Inhibition vs Control: 3 replicates
Description: FIG. 4. Phenylmethimazole (C10) and Methimazole (MMI) inhibit the ability of IFN-β to increase TLR3, PKR, and MHC class I RNA levels in FRTL-5 thyrocytes. Cells were incubated with or without 100 U/ml of IFN-β for 3 hours in the presence of dimethyl sulfoxide (DMSO), C10, or MMI. DMSO is the vehicle control. Northern blots were performed with 20 ug of total RNA to detect TLR 3, PKR, MHC I, and GAPDH using radiolabeled cDNA probes. Data are representative of multiple experiments. As was the case for Poly (I:C) transfection in FIG. 2B, IFN-β increased TLR3.
We evaluated the ability of C10 and MMI to inhibit TLR3 expression and signaling. C10 prevented the ability of dsRNA transfection and incubation with IFN-β to increase TLR3RNA levels in FRTL-5 cells, as measured by PCR (FIG. 4A). […] DMSO is the vehicle for C10 because of the hydrophobicity of C10; it had no significant effect on basal activity and was used as the control value in all experiments described herein.
The C-10 and MMI reduced the ability of IFN-β to increase PKR and MHC class I RNA levels, albeit relatively less than TLR3 (FIG. 4B). […] We questioned the C10 mechanism of action.
RNA Isolation and Northern Analysis. […] .
RT-PCR. DNA was removed from total RNA using the DNA-free Kit (Ambion) according to the manufacturer's instructions. One μg of RNA was used to synthesize cDNA using the Advantage RT-for-PCR Kit (BD Biosciences) according to the manufacturer's protocol. Fifty ng of cDNA was subsequently used for PCR of TLR-3, and β-Actin; 250 ng of cDNA was used for PCR of IFN-β. The primers used for amplification of human TLR-3 and β-Actin have been previously described (K. U. Saikh, et al., Clin Diagn Lab Immunol, 10:1065-73 (2003)).

NOD mice = test: Glucosuria in NOD mice, infection/Coxsackie virus-induced Type 1 diabetes; type: in vivo, mouse
From the text: Mice were housed in germ free facilities, termed clean, or normal facilities where viral infections can occur, termed dirty. Animals showing urine Tes-Tape positivity greater than 1+ are considered positive and to have diabetes (L. S. Wicker, et al., Diabetes, 35:855-60 (1986)). In experiments in a “dirty” animal facility, C10 was effective in retarding the development of glucosuria in the NOD mice. When this was repeated in a “clean” or germ free laboratory, no effect of C10 was noted. What was noted, however, was the onset of glucosuria in the mice was much earlier in the animals maintained in “dirty” as opposed to “clean” mouse facilities. Further, in experiments with 8 mice in each group, even in a dirty facility, the injection of CVB4 Edwards Coxsackie virus advanced the expression of glucosuria (last two rows).
Induction of Diabetes and treatment with drugs. NOD/Lt female mice were from the Jackson Laboratory (Bar Harbor, Me.). All experiments were carried out in accordance with “Guide for Care and Use of Laboratory Animals” (NIH Publication No. 85-23, revised 1985). Mice were injected with 200 μl PBS or 5×10^5 PFU of the CVB4 Edwards Coxsackie virus strain ip (D. V. Serreze, et al., J Virol, 79:1045-52 (2005)). Mice were treated daily with i/p injections of C-10, MMI, 2.5% DMSO(C10 carrier control), or PBS (MMI carrier control). After injections, blood and urinary glucose levels were monitored weekly using Chemstrips (Boehringer Mannheim). Consecutive values of >240 mg/dl on two occasions >24 h apart were considered diagnostic of diabetes. Experiments used 8 mice/group in up to 3 experiments.

[1] = + CVB4 Edwards Coxsackie virus, Dirty facility

Cn1c(-c2ccccc2)cnc1S [Compound C10, 5-Phenylmethimazole]
decrease of TLR3 and IFN-β-mRNA levels in thyrocytes vs solutions with DMSO (TLR3; C10 stored in aqueous cyclodextrin preparation for 6 weeks prior to use): equally effective
IFN-β increased MHC class I and PKR mRNA levels (TLR3; FRTL-5, 100 U/ml IFN-β 3 hours): significantly decreased
IFN-β-increased TLR3 RNA levels (TLR3; FRTL-5, 100 U/ml IFN-β 3 hours, C10 0.5 mM, MMI 5 mM): totally prevented
IFN-β increased MHC class I and PKR mRNA levels (TLR3; FRTL-5, 100 U/ml IFN-β 3 hours, listed as C-10): reduced
basal level of TLR 3 mRNA (TLR3; FRTL-5, no IFN-β): slightly reduced
% TLR3 Inhibition vs Control (TLR3; IFN-β increased TLR3 RNA, C10 0.1 mM in Excip.): 90%
% TLR3 Inhibition vs Control (TLR3; dsRNA increased TLR3 RNA, C10 0.1 mM in DMSO): 90%
glucosuria and death in Coxsackie's virus induced NOD mouse model of diabetes (NOD mice): effective in retarding glucosuria and death
Glucosuria % of Total, Week 1 (NOD mice; [1]): 0 % of Total
Glucosuria % of Total, Week 4 (NOD mice; [1]): 0 % of Total
Glucosuria % of Total, Week 8 (NOD mice; [1]): 20 % of Total
Glucosuria % of Total, Week 12 (NOD mice; [1]): 30 % of Total
Glucosuria % of Total, Week 1 (NOD mice; Clean facility): 0 % of Total
Glucosuria % of Total, Week 4 (NOD mice; Clean facility): 0 % of Total
Glucosuria % of Total, Week 8 (NOD mice; Clean facility): 0 % of Total
Glucosuria % of Total, Week 12 (NOD mice; Clean facility): 20 % of Total
Glucosuria % of Total, Week 16 (NOD mice; Clean facility): 40 % of Total
Glucosuria % of Total, Week 20 (NOD mice; Clean facility): 100 % of Total
Glucosuria % of Total, Week 1 (NOD mice; Dirty facility): 0 % of Total
Glucosuria % of Total, Week 4 (NOD mice; Dirty facility): 0 % of Total
Glucosuria % of Total, Week 8 (NOD mice; Dirty facility): 0 % of Total
Glucosuria % of Total, Week 12 (NOD mice; Dirty facility): 0 % of Total
